Molecules are shown by their SMILES. Like-named read-outs stand apart in the source and are kept apart here.

Data set [1] in a line: LogP by HPLC on reversed phase columns (EEC directive 79/831 Annex V.A8). The data set is classed as physicochemical. As to conditions: reversed phase HPLC columns, method [a]: LC-UV. In short, it runs like this: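 LogP derived from retention time by linear interpolation against a C3–C16 alkan-2-one calibration series of known LogP. Measured by HPLC on reversed-phase columns following EEC 79/831 Annex V.A8. UV spectra over 200–400 nm at signal peaks gave lambda-max.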

Data set [2] concerns Xanthomonas campestris pv. campestris. Briefly: In vivo preventive test on Xanthomonas campestris pv. campestris (black rot on cabbage). As to conditions: for pest or weed control at 125 ppm: 125 ppm of active ingredient. On the procedure:
The tested active ingredients were prepared by homogenization in a mixture of acetone/Dimethyl sulfoxide/Tween®, and then diluted with water to obtain the desired active material concentration.
The young plants of cabbage were treated by spraying the active ingredient prepared as described above. Control plants were treated only with an aqueous solution of acetone/Dimethyl sulfoxide/Tween®.
After 72 hours, the plants were contaminated by spraying the leaves with an aqueous bacteria suspension of Xanthomonas campestris pv. campestris. The contaminated cabbage plants were incubated for 8 or 10 days at 27° C. at 95% relative humidity.
The test was evaluated 8 or 10 days after the inoculation. 0% means an efficacy which corresponds to that of the control plants while an efficacy of 100% means that no disease was observed. […]
Compounds CMP1, CMP2, CMP3 and CMP4 were tested in an in vivo preventive test on Xanthomonas campestris pv. campestris (black rot on cabbage) in the same conditions as described in Example H.

Another data set has as its system Peronospora parasitica. Briefly: In vivo preventive test on Peronospora parasitica (Crucifer downy mildew). As to conditions: Hyaloperonospora parasitica, in Brassica oleracea, 120 h, cabbage, evaluated 5 days after inoculation, read-out: efficacy; for pest or weed control at 125 ppm: 125 ppm of active ingredient; for pest or weed control at 500 ppm: 500 ppm of active ingredient; for pest or weed control at 31 ppm: 31 ppm of active ingredient. Here is the method: The tested active ingredients were prepared by homogenization in a mixture of acetone/Dimethyl sulfoxide/Tween®, and then diluted with water to obtain the desired active material concentration. The young plants of cabbage were treated by spraying the active ingredient prepared as described above. Control plants were treated only with an aqueous solution of acetone/Dimethyl sulfoxide/Tween®.
After 72 hours, the plants were contaminated by spraying the leaves with an aqueous suspension of Peronospora parasitica spores. The contaminated cabbage plants were incubated for 5 days at 20° C. and at 100% relative humidity.
The test was evaluated 5 days after the inoculation. 0% means an efficacy which corresponds to that of the control plants while an efficacy of 100% means that no disease was observed.
Compounds CMP2 and CMP3 were tested in an in vivo preventive test on Peronospora parasitica (Crucifer downy mildew) in the same conditions as described in Example G.

The subject of another data set is Uromyces appendiculatus. Briefly: In vivo preventive test on Uromyces appendiculatus (bean rust). The following applies: 240 h, evaluated 10 days after inoculation, read-out: efficacy; for pest or weed control at 125 ppm: 125 ppm of active ingredient; for pest or weed control at 500 ppm: 500 ppm of active ingredient. Here is the method: (§1) The tested active ingredients were prepared by homogenization in a mixture of acetone/Dimethyl sulfoxide/Tween®, and then diluted with water to obtain the desired active material concentration. The young plants of bean were treated by spraying the active ingredient prepared as described above. Control plants were treated only with an aqueous solution of acetone/Dimethyl sulfoxide/Tween®.
After 72 hours, the plants were contaminated by spraying the leaves with an aqueous suspension of Uromyces appendiculatus spores. The contaminated bean plants were incubated for 24 hours at 20° C. and at 100% relative humidity and then for 9 days at 20° C. and at 70-80% relative humidity. The test was evaluated 10 days after the inoculation. 0% means an efficacy which corresponds to that of the control plants while an efficacy of 100% means that no disease was observed.
Compounds CMP5 and CMP6 were tested in an in vivo preventive test on Uromyces appendiculatus (bean rust) in the same conditions as described in Example I.

Data set [3] has as its system salicylate responsive promoter sequence of the PR1 (pathogenesis-related protein I) gene (AT2G14610). Briefly: Induction of defense gene expression in Arabidopsis thaliana (PR1 promoter-GFP reporter plants). The data set is classed as in vivo. As to conditions: Arabidopsis thaliana, 72 h, 3rd day after spraying, mock treated leaves set as 1.00, read-out: relative fluorescence value; for fold induction at 75 ppm: 75 ppm of compound. On the procedure: Arabidopsis thaliana reporter plants containing the coding sequence of a green fluorescent protein (GFP) linked to the salicylate responsive promoter sequence of the PR1 (pathogenesis-related protein I) gene (AT2G14610) were grown for five days and then sprayed with compounds. On the 3rd day after spraying, plant fluorescence was assessed with a MacroFluo instrument from Leica Microsystems (Wetzlar, Germany). Fluorescences were quantified with the Meta-Morph Microscopy Automation & Image Analysis Software (Molecular Devices, Sunnyvale, Calif., United States). Background fluorescence in mock treated leaves was set as 1.00.

The subject of data set [4] is Colletotrichum lindemuthianum. In words: In vivo preventive test on Colletotrichum lindemuthianum (Antrachnose on bean). The following applies: 144 h, inoculation 72 h after spraying, evaluated 6 days after inoculation, read-out: efficacy; for pest or weed control at 500 ppm: 500 ppm of active ingredient. Here is the method:
as §1
After 72 hours, the plants were contaminated by spraying the leaves with an aqueous suspension of Colletotrichum lindemuthianum spores. The contaminated bean plants were incubated for 24 hours at 20° C. and at 100% relative humidity and then for 5 days at 20° C. and at 90% relative humidity. The test was evaluated 6 days after the inoculation. 0% means an efficacy which corresponds to that of the control plants while an efficacy of 100% means that no disease was observed.
Compound CMP1 was tested in an in vivo preventive test on Colletotrichum lindemuthianum (Antrachnose on bean) in the same conditions as described in Example F.

Data set [5] concerns Pseudomonas syringae pv. tomato. In words: In vivo preventive test on Pseudomonas syringae pv. tomato (bacterial speck on tomato). The following applies: evaluated 5 or 6 days after inoculation, read-out: efficacy; for pest or weed control at 500 ppm: 500 ppm of active ingredient; for pest or weed control at 31 ppm: 31 ppm of active ingredient. On the procedure: The tested active ingredients were prepared by homogenization in a mixture of acetone/Dimethyl sulfoxide/Tween®, and then diluted with water to obtain the desired active material concentration. The young plants of tomato were treated by spraying the active ingredient prepared as described above. Control plants were treated only with an aqueous solution of acetone/Dimethyl sulfoxide/Tween®.
After 72 hours, the plants were contaminated by spraying the leaves with an aqueous bacteria suspension of Pseudomonas syringae pv. tomato. The contaminated tomato plants were incubated for 4 days in saturated atmosphere at 22° C. day/20° C. night—70% HR and then for 1 or 2 days at 22° C. day/20° C. night at 70-80% relative humidity.
The test was evaluated 5 or 6 days after the inoculation. 0% means an efficacy which corresponds to that of the control plants while an efficacy of 100% means that no disease was observed.
Compounds CMP1 and CMP4 were tested in an in vivo preventive test on Pseudomonas syringae pv. tomato (bacterial speck on tomato) in the same conditions as described in Example J.

The test system is the same in data set [6]. In words: Pseudomonas syringae pv. tomato in vitro cell test. The data set is classed as cell-based. As to conditions: 20 ppm of active ingredient, 24 h incubation, read-out: efficacy (inhibition of bacteria growth). Here is the method: Culture medium: LB broth medium (Luria Broth Miller) Sigma
Inoculum: bacteria suspension
Compounds were solubilized in DMSO and the solution used to prepare the required range of concentrations. The final concentration of DMSO used in the assay was 1%.
(§2) Inoculum was prepared from a pre-culture of bacteria grown in liquid medium and diluted to the desired optical density (OD).
(§3) Compounds were evaluated for their ability to inhibit bacteria growth in liquid culture assay. The compounds were added in the desired concentrations to culture medium containing the bacteria suspension. After 24 h of incubation, the efficacy of compounds was determined by spectrometric measurement of bacteria growth. Inhibition was determined by comparing the absorbance values in wells containing the compounds with the absorbance in control wells without active ingredients.

The test system of data set [7] is Xanthomonas campestris pv. campestris. Briefly: Xanthomonas campestris pv. campestris in vitro cell test. The data set is classed as cell-based. The following applies: read-out: efficacy (inhibition of bacteria growth). On the procedure:
• Solvent: DMSO • Culture medium: LB broth medium (Luria Broth Miller) Sigma • Inoculum: bacteria suspension
Compounds were solubilized in DMSO and the solution used to prepare the required range of concentrations. The final concentration of DMSO used in the assay was ≤1%.
as §2, §3

[8] abbreviates: in an acidic range, with 0.1% formic acid in water and acetonitrile as eluent (linear gradient from 10% to 95% acetonitrile).
The mark [9] stands for this setting: evaluated 8 or 10 days after inoculation, read-out: efficacy.
Where [10] appears, read: acidic range, 0.1% formic acid in water and acetonitrile as eluent (linear gradient 10% to 95% acetonitrile).
[11] abbreviates: 20 ppm of active ingredient, 24 h incubation.
The mark [12] stands for this setting: 31 ppm of active ingredient, evaluated 8 or 10 days after inoculation, read-out: efficacy.

In data set [1] (setting [8]), `CON(C(=O)c1sc(Cl)c(Cl)c1Cl)C(C)C(=O)O` (stereo not drawn) [I.111] had a chromatographic logP of 2.83. Also, the pest or weed control at 125 ppm is 70 to 79% in [2] (setting [9]), 80 to 89% in the data set with Peronospora parasitica and 90 to 100% in the data set with Uromyces appendiculatus. The pest or weed control at 500 ppm lay within 90 to 100% with Peronospora parasitica, 90 to 100% in the data set with Uromyces appendiculatus, 70 to 79% in data set [4] and 80 to 89% in data set [5]. The fold induction at 300 ppm in data set [3] is > 2.

In the case of `COC(=O)C(NC(=O)c1sc(Cl)c(Cl)c1Cl)c1cccs1` (stereo not drawn) [I.124], the chromatographic logP in data set [1] (setting [10]) came out at 4.22. Further, the pest or weed control at 31 ppm in the data set with Peronospora parasitica was in the range of 90 to 100%; in data set [4] (31 ppm of active ingredient), 90 to 100%; in data set [5] it was 80 to 89%. In addition, the pest or weed control at 125 ppm with Peronospora parasitica and in the data set on Uromyces appendiculatus was 90 to 100% in each case. The inhibition at 20 ppm in data set [6] and in data set [7] (setting [11]) was ≤ 30% in each case. In data set [3], the fold induction at 75 ppm is > 2. The fold induction at 300 ppm in [3] is > 2.

In data set [1] (setting [10]), `CNC(=S)SC[C@H](NC(=O)c1sc(Cl)c(Cl)c1Cl)C(=O)OC` [I.140] came in with a chromatographic logP of 3.52. Further, the pest or weed control at 31 ppm in [2] (read-out: efficacy, 31 ppm of active ingredient, evaluated 8 or 10 days after inoculation) was 90 to 100%; in the data set on Peronospora parasitica, 90 to 100%; in data set [5], 70 to 79%. Besides, the pest or weed control at 125 ppm in the data set on Peronospora parasitica and in the data set on Uromyces appendiculatus was 90 to 100% each time. Further, the inhibition at 20 ppm in data set [6] and in [7] (24 h) was ≤ 30% throughout. Moreover, in data set [3], the fold induction at 75 ppm is > 2. The fold induction at 300 ppm in [3] is > 2.

In data set [1] (setting [8]), `CCOC(=O)C(C)N(OC)C(=O)c1sc(Cl)c(Cl)c1Cl` (stereo not drawn) [I.108] showed a chromatographic logP of 4.15. The pest or weed control at 31 ppm (in data set [2] (setting [12]); in the data set with Peronospora parasitica) was 90 to 100% throughout. Moreover, the pest or weed control at 125 ppm with Peronospora parasitica and in the data set with Uromyces appendiculatus was 90 to 100% each time. Also, the pest or weed control at 500 ppm in the data set on Peronospora parasitica fell in the range of 90 to 100%; in the data set with Uromyces appendiculatus it was 90 to 100%; in data set [4], 90 to 100%; in data set [5], 80 to 89%. Also, the fold induction at 75 ppm in data set [3] is > 2. Also, the fold induction at 300 ppm in data set [3] is > 2.

For the compound `CCNC(=O)[C@@H](NC(=O)c1sc(Cl)c(Cl)c1Cl)C(C)C` [I.090], the results for the pest or weed control at 31 ppm (in [2] (setting [12]); in the data set with Peronospora parasitica; in data set [5]) were 70 to 79%, 90 to 100% and 90 to 100%, respectively. For the same compound, the pest or weed control at 125 ppm in the data set on Peronospora parasitica was 90 to 100%; in the data set with Uromyces appendiculatus, 80 to 89%. For the same compound, the pest or weed control at 500 ppm (in the data set on Peronospora parasitica; in the data set on Uromyces appendiculatus; in [4]; in data set [5]) was 90 to 100% in each case. Besides, the fold induction at 75 ppm in data set [3] is > 2. Further, the fold induction at 300 ppm in data set [3] is > 2.

With `COC(=O)C(C)N(OC)C(=O)c1sc(Cl)c(Cl)c1Cl` (stereo not drawn) [I.109], the chromatographic logP in data set [1] (setting [8]) was 3.72. In addition, the pest or weed control at 125 ppm was in the range of 70 to 79% in data set [2] (setting [9]), 90 to 100% with Peronospora parasitica and 90 to 100% in the data set with Uromyces appendiculatus. In the data set on Peronospora parasitica, the pest or weed control at 31 ppm lay within 90 to 100%. Besides, the pest or weed control at 500 ppm with Peronospora parasitica is 90 to 100%; in the data set with Uromyces appendiculatus, 90 to 100%; in data set [4], 90 to 100%; in [5], 80 to 89%. For the same compound, the fold induction at 75 ppm in [3] is > 2. In data set [3], the fold induction at 300 ppm was > 2.

Regarding `CCOC(=O)C(Cc1c[nH]c2ccccc12)NC(=O)c1sc(Cl)c(Cl)c1Cl` (stereo not drawn) [I.013], the chromatographic logP in [1] (setting [8]) is 4.44. Moreover, the pest or weed control at 125 ppm in [2] (setting [9]) was in the range of 80 to 89%; in the data set with Uromyces appendiculatus, 70 to 79%. For the same compound, the pest or weed control at 31 ppm in the data set with Peronospora parasitica was 80 to 89%. Moreover, the pest or weed control at 500 ppm is 90 to 100% in the data set with Peronospora parasitica, 90 to 100% in the data set on Uromyces appendiculatus and 80 to 89% in [4]. The inhibition at 20 ppm in data set [6] and in [7] (setting [11]) was ≤ 30% throughout. In [3], the fold induction at 300 ppm is > 2.

The term chromatographic logP denotes lipophilicity estimated from chromatographic retention. Usually inhibition stands for the change of the read-out against control, counted positive when it falls.
